Test results from patent publication US20080207728A1, “BICYCLIC ACYLTRYPTOPHANOLS” (priority 2006, published 2008).

The compounds below were run against T1, human FSH receptor (Homo sapiens, UniProt P23945) (assay: HTRF assay for measuring cAMP in cells (FSH antagonism)). Conditions: Table 2; hFSHR clone 16 cells (CHO cells stably transfected with the human FSH receptor), in the presence of 1e-9 mol/l hFSH, 37° C. for 2 h; read-out: IC50 (FSH-antagonistic effect in the HTRF assay).
T1 construct: expressed in transfected cells; host or cells: CHO cells (hFSHR clone 16)
T1 sequence (P23945 18-695): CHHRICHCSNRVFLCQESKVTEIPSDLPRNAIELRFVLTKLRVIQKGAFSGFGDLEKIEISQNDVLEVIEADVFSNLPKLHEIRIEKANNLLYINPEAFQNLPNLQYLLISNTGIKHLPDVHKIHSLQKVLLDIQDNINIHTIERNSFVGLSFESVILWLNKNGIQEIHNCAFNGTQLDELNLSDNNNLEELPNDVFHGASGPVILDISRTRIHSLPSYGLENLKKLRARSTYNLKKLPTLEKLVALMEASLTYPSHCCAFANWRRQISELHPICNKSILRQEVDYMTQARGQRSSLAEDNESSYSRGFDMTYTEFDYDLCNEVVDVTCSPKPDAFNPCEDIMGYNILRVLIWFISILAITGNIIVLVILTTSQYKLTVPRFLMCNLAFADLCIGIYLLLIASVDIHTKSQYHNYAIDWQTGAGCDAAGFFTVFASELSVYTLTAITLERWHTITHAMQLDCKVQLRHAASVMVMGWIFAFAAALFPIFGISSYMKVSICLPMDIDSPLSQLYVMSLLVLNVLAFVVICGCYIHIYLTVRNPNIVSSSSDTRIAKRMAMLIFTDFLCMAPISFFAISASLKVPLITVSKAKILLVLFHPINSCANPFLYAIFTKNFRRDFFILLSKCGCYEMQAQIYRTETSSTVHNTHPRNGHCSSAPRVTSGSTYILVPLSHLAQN
Assay type: cell-based
Description: HTRF Assay for Measuring cAMP in Cells
The method is based on a competitive immunoassay between native cAMP, which has been produced by the cells, and cAMP which is labelled with XL665. The tracer binding was visualized by a monoclonal antibody, anti-cAMP labelled with cryptate [HTRF=homogeneous time-resolved fluorescence].
The specific signal is inversely proportional to the cAMP concentration of the samples employed.
The 665 nm/620 nm fluorescence ratio was evaluated.
The following material was used: 96-well plates for the tissue culture, 96-well plates with black edge and black base (e.g. Fluotrac 600 from Greiner), 96-well plates for the substance dilutions of polypropylene and cAMP Femtomolar (4000 wells Kit, CIS Bio International # 62AM1PEC).
The following reagents were used: BSA (bovine serum albumin) Fraction V protease-free, IBMX (3-isobutyl-1-methylxanthine), hFSH (human follicle stimulating hormone), Triton X-100 analytical grade, potassium fluoride analytical grade, G 418 (Geneticin) and Accutase.
Buffer 1 (washing and testing buffer) contained PBS, 1 mM CaCl2, 1 mM MgCl2, 0.2% glucose; 0.1% BSA, 1 mM IBMX.
Buffer 2 (2× lysis buffer) contained 1% Triton X-100 in PBS (without CaCl2 and MgCl2).
Buffer 3 (assay buffer) contained 50 mM potassium phosphate buffer (pH 7.0); 800 mM potassium fluoride; 0.2% BSA (always added fresh).
On day 1, the cells were seeded in 96-well plates (3×10^4 cells per well hFSHR clone 16 cells (CHO cells stably transfected with the human FSH receptor in 150 μl of medium).
The next day, test substance dilutions were made up. For this purpose, all the substances were diluted in ice-cold buffer 1 (with or without hFSH), and the substance dilutions were placed on ice until applied to the cells.
The cell supernatant was then aspirated off, and the cells were washed 2× with 200 μl of buffer 1. The cells were treated with 60 μl of the appropriate substance concentrations at 37° C. for 2 h. The cells were then lysed with 60 μl of buffer 2 (put onto the supernatant) (on a plate shaker at RT for 30 min).
The test conjugates (XL-665 and anti-cAMP cryptate) were diluted in buffer 3 in accordance with the manufacturers' information. The actual mixture for measurement was pipetted into a black 96-well plate (in each case 15 μl of the cell lysate diluted with 35 μl of buffer 1; firstly 25 μl of XL-665 conjugate were pipetted and, after 10 min, 25 μl of the anti-cAMP cryptate were added). This is followed by incubation at RT for 90 minutes. The measurement was carried out in a PheraStar (BMG).
Tissue Culture Conditions
Dose-effect curve (hFSH) for the human receptor: 1e-8, 3e-9, 1 e-9, 3e-10, 1 e-10, 3e-11, 1e-11, 3e-12 mol/l.
The test substances were employed in suitable dilutions in the absence (test for agonism) and in the presence of 1e-9 mol/l hFSH.
The values of the well ratio were averaged and then entered directly in SigmaPlot versus the concentrations. The maximum and minimum values were determined for each plate, and half the difference is to be regarded as IC50.

| IC50 [nM] | Compound |
| --- | --- |
| 950 | COc1ccc(-c2cc3c(c(C(=O)N[C@@H](CO)Cc4c[nH]c5ccccc45)c2)OCCO3)cc1F [Example 109, 7-(3-Fluoro-4-methoxy-phenyl)-2,3-dihydro-benzo[1,4]dioxine-5-carboxylic acid [(R)-1-hydroxymethyl-2-(1H-indol-3-yl)-ethyl]-amide] |
| 2000 | CS(=O)(=O)c1cccc(-c2cc3c(c(C(=O)N[C@@H](CO)Cc4c[nH]c5ccccc45)c2)OCCO3)c1 [Example 116, 7-(3-Methanesulfonyl-phenyl)-2,3-dihydro-benzo[1,4]dioxine-5-carboxylic acid [(R)-1-hydroxymethyl-2-(1H-indol-3-yl)-ethyl]-amide] |
| 130 | COC(=O)c1ccc(-c2cc3c(c(C(=O)N[C@@H](CO)Cc4c[nH]c5ccccc45)c2)OCCO3)cc1OC [Example 118, 4-{8-[(R)-1-Hydroxymethyl-2-(1H-indol-3-yl)-ethylcarbamoyl]-2,3-dihydro-benzo[1,4]dioxin-6-yl}-2-methoxy-benzoic acid methyl ester] |
| 2000 | CN(C)S(=O)(=O)c1ccc(-c2cc3c(c(C(=O)N[C@@H](CO)Cc4c[nH]c5ccccc45)c2)OCCO3)cc1 [Example 123, 7-(4-Dimethylsulfamoyl-phenyl)-2,3-dihydro-benzo[1,4]dioxine-5-carboxylic acid [(R)-1-hydroxymethyl-2-(1H-indol-3-yl)-ethyl]-amide] |
| 3000 | O=C(N[C@@H](CO)Cc1c[nH]c2ccccc12)c1cc(-c2cccc(Cl)c2)cc2c1OCCO2 [Example 130, 7-(3-Chloro-phenyl)-2,3-dihydro-benzo[1,4]dioxine-5-carboxylic acid [(R)-1-hydroxymethyl-2-(1H-indol-3-yl)-ethyl]-amide] |
| 800 | Nc1cccc(-c2cc3c(c(C(=O)N[C@@H](CO)Cc4c[nH]c5ccccc45)c2)OCCO3)c1 [Example 135, 7-(3-Amino-phenyl)-2,3-dihydro-benzo[1,4]dioxine-5-carboxylic acid [(R)-1-hydroxymethyl-2-(1H-indol-3-yl)-ethyl]-amide] |
| 200 | CNC(=O)c1ccc(-c2cc3c(c(C(=O)N[C@@H](CO)Cc4c[nH]c5ccccc45)c2)OCCO3)cc1 [Example 142, 7-(4-Methylcarbamoyl-phenyl)-2,3-dihydro-benzo[1,4]dioxine-5-carboxylic acid [(R)-1-hydroxymethyl-2-(1H-indol-3-yl)-ethyl]-amide] |
| 9000 | Cc1ccccc1-c1cc2c(c(C(=O)N[C@@H](CO)Cc3c[nH]c4ccccc34)c1)OCCO2 [Example 143, 7-o-Tolyl-2,3-dihydro-benzo[1,4]dioxine-5-carboxylic acid [(R)-1-hydroxymethyl-2-(1H-indol-3-yl)-ethyl]-amide] |
| 70 | CNC(=O)c1ccc(-c2cc3c(c(C(=O)NC(CO)Cc4c[nH]c5c(F)cc(F)cc45)c2)OC(C)(C)CC3)cc1Cl (stereo not drawn) [Example 190, 6-(3-Chloro-4-methylcarbamoyl-phenyl)-2,2-dimethyl-chroman-8-carboxylic acid [2-(5,7-difluoro-1H-indol-3-yl)-1-hydroxymethyl-ethyl]amide] |
